Assay results as given in patent US20100093662A1, “NOVEL AMPHIPHILIC CYCLODEXTRIN DERIVATIVES” (CENTRE NATIONAL DE LA RECHERCHE SCIENTIFIQUE-CNRS-, priority 2006, published 2010).

Test: Size and polydispersion of white homogenous nanospheres (quasi-elastic diffusion of light), physical stability over time
Type: physicochemical
Experimental: The method used to prepare white homogenous nanospheres consists in introducing an organic phase of acetone (or tetrahydrofurane) and an amphiphilic cyclodextrin derivative from the invention (1 mg·mL^−1) in an aqueous phase of equivalent volume or a double volume (distilled water), under magnetic stirring (500 r.p.m.) at 25° C. After nanoprecipitation, the organic solvent is eliminated under reduced pressure at +35° C. The aqueous suspension presenting an opalescent to milky appearance (according to the products used) is then concentrated until the final volume desired is obtained, then filtered on a 0.8 μm filter (Millex AA, Millipore, France).
The colloid suspensions are then characterised as regards the granulometry (mean size and polydisperion) and, when they incorporate loaded amphiphilic cyclodextrins, by their zeta potential. The characterisation is carried out using the following methods:
The quasi-elastic diffusion of light is used. A Zetasizer 3000 apparatus equipped with a K7132 correlator (Malvern Instruments, RU) was used. The conditions for measurement are as follows: angle of detection 90°, temperature 25±0.1° C., apparent viscosity 0.89 mPa·s. Before measuring the size, samples are diluted in distilled water if necessary. The hydrodynamic diameter (mean Z) and polydispersion index (PI) of the nanoparticles in suspension are calculated in intensity by the cumulant method by carrying out 3 measurements on the same sample. The value of the hydrodynamic diameter is calculated using the measurement of the translational coefficient of diffusion of particles with Brownian movement. An NanoZS apparatus (Malvern Instruments) was also used to measure the size of the nanocapsules. In the same way, the samples are diluted before measurement, if necessary in water added to Montanox 80 (trade mark).
The studies on the physical stability of particles were carried out over periods ranging from 1 month to 8 months. The corresponding data for a series of amphiphilic cyclodextrins in the invention are indicated in Table 1 providing the granulometric characteristics (mean size and polydispersion index or mean PI), with evolution over time, of different homogenous nanospheres derived from the compounds indicated in the left column, the reference number for said compounds corresponding to those of the compounds described in the above examples.

Structure (SMILES)	Mean size ± standard deviation (n = 3) (8 months) [nm]	PI (polydispersion index) (8 months)	Mean size ± standard deviation (n = 3) (initial) [nm]	PI (polydispersion index) (initial)	IP (polydispersion index) (3 months)	Mean size ± standard deviation (n = 3) (3 months) [nm]	IP (polydispersion index) (6 months)	Mean size ± standard deviation (n = 3) (6 months) [nm]
CCCCCC(=O)O[C@@H]1[C@@H](OC(=O)CCCCC)[C@H]2O[C@H]3[C@H](OC(=O)CCCCC)[C@@H](OC(=O)CCCCC)[C@@H](O[C@H]4[C@H](OC(=O)CCCCC)[C@@H](OC(=O)CCCCC)[C@@H](O[C@H]5[C@H](OC(=O)CCCCC)[C@@H](OC(=O)CCCCC)[C@@H](O[C@H]6[C@H](OC(=O)CCCCC)[C@@H](OC(=O)CCCCC)[C@@H](O[C@H]7[C@H](OC(=O)CCCCC)[C@@H](OC(=O)CCCCC)[C@@H](O[C@H]8[C@H](OC(=O)CCCCC)[C@@H](OC(=O)CCCCC)[C@@H](O[C@@H]1[C@@H](CI)O2)O[C@@H]8CI)O[C@@H]7CI)O[C@@H]6CI)O[C@@H]5CI)O[C@@H]4CI)O[C@@H]3CI [compound no. 1, heptakis(6-desoxy-2,3-di-0-hexanoyl-6-iodo) cyclomaltoheptaose]	236 ± 13	0.03	251 ± 62	0.08	–	–	–	–
CCCCCC(=O)O[C@@H]1[C@@H](OC(=O)CCCCC)[C@H]2O[C@H]3[C@H](OC(=O)CCCCC)[C@@H](OC(=O)CCCCC)[C@@H](O[C@H]4[C@H](OC(=O)CCCCC)[C@@H](OC(=O)CCCCC)[C@@H](O[C@H]5[C@H](OC(=O)CCCCC)[C@@H](OC(=O)CCCCC)[C@@H](O[C@H]6[C@H](OC(=O)CCCCC)[C@@H](OC(=O)CCCCC)[C@@H](O[C@H]7[C@H](OC(=O)CCCCC)[C@@H](OC(=O)CCCCC)[C@@H](O[C@H]8[C@H](OC(=O)CCCCC)[C@@H](OC(=O)CCCCC)[C@@H](O[C@@H]1[C@@H](CBr)O2)O[C@@H]8CBr)O[C@@H]7CBr)O[C@@H]6CBr)O[C@@H]5CBr)O[C@@H]4CBr)O[C@@H]3CBr [compound no. 2, heptakis(6-bromo-6-desoxy-2,3-di-O-hexanoyl)cyclomaltoheptaose]	182 ± 22	0.01	238 ± 29	0.02	–	–	–	–
CCCCCC(=O)O[C@@H]1[C@@H](OC(=O)CCCCC)[C@H]2O[C@H]3[C@H](OC(=O)CCCCC)[C@@H](OC(=O)CCCCC)[C@@H](O[C@H]4[C@H](OC(=O)CCCCC)[C@@H](OC(=O)CCCCC)[C@@H](O[C@H]5[C@H](OC(=O)CCCCC)[C@@H](OC(=O)CCCCC)[C@@H](O[C@H]6[C@H](OC(=O)CCCCC)[C@@H](OC(=O)CCCCC)[C@@H](O[C@H]7[C@H](OC(=O)CCCCC)[C@@H](OC(=O)CCCCC)[C@@H](O[C@H]8[C@H](OC(=O)CCCCC)[C@@H](OC(=O)CCCCC)[C@@H](O[C@@H]1[C@@H](CN=[N+]=[N-])O2)O[C@@H]8CN=[N+]=[N-])O[C@@H]7CN=[N+]=[N-])O[C@@H]6CN=[N+]=[N-])O[C@@H]5CN=[N+]=[N-])O[C@@H]4CN=[N+]=[N-])O[C@@H]3CN=[N+]=[N-] [compound no. 3, heptakis(6-azido-6-desoxy-2,3-di-O-hexanoyl)cyclomaltoheptaose]	–	–	181 ± 5	0.08	0.06	157 ± 8	0.18	206 ± 17
CCCCCCCCCCCCCC(=O)O[C@@H]1[C@@H](OC(=O)CCCCCCCCCCCCC)[C@H]2O[C@H]3[C@H](OC(=O)CCCCCCCCCCCCC)[C@@H](OC(=O)CCCCCCCCCCCCC)[C@@H](O[C@H]4[C@H](OC(=O)CCCCCCCCCCCCC)[C@@H](OC(=O)CCCCCCCCCCCCC)[C@@H](O[C@H]5[C@H](OC(=O)CCCCCCCCCCCCC)[C@@H](OC(=O)CCCCCCCCCCCCC)[C@@H](O[C@H]6[C@H](OC(=O)CCCCCCCCCCCCC)[C@@H](OC(=O)CCCCCCCCCCCCC)[C@@H](O[C@H]7[C@H](OC(=O)CCCCCCCCCCCCC)[C@@H](OC(=O)CCCCCCCCCCCCC)[C@@H](O[C@H]8[C@H](OC(=O)CCCCCCCCCCCCC)[C@@H](OC(=O)CCCCCCCCCCCCC)[C@@H](O[C@@H]1[C@@H](CI)O2)O[C@@H]8CI)O[C@@H]7CI)O[C@@H]6CI)O[C@@H]5CI)O[C@@H]4CI)O[C@@H]3CI [compound no. 4, heptakis(6-desoxy-6-iodo-2,3-di-O-myristoyl)cyclomaltoheptaose]	–	–	217 ± 17	0.04	0.03	206 ± 20	0.06	227 ± 26
CCCCCCCCCCCCCC(=O)O[C@@H]1[C@@H](OC(=O)CCCCCCCCCCCCC)[C@H]2O[C@H]3[C@H](OC(=O)CCCCCCCCCCCCC)[C@@H](OC(=O)CCCCCCCCCCCCC)[C@@H](O[C@H]4[C@H](OC(=O)CCCCCCCCCCCCC)[C@@H](OC(=O)CCCCCCCCCCCCC)[C@@H](O[C@H]5[C@H](OC(=O)CCCCCCCCCCCCC)[C@@H](OC(=O)CCCCCCCCCCCCC)[C@@H](O[C@H]6[C@H](OC(=O)CCCCCCCCCCCCC)[C@@H](OC(=O)CCCCCCCCCCCCC)[C@@H](O[C@H]7[C@H](OC(=O)CCCCCCCCCCCCC)[C@@H](OC(=O)CCCCCCCCCCCCC)[C@@H](O[C@H]8[C@H](OC(=O)CCCCCCCCCCCCC)[C@@H](OC(=O)CCCCCCCCCCCCC)[C@@H](O[C@@H]1[C@@H](CBr)O2)O[C@@H]8CBr)O[C@@H]7CBr)O[C@@H]6CBr)O[C@@H]5CBr)O[C@@H]4CBr)O[C@@H]3CBr [compound no. 5, heptakis(6-bromo-6-desoxy-2,3-di-O-myristoyl)cyclomaltoheptaose]	–	–	244 ± 13	0.13	0.05	232 ± 22	0.03	242 ± 27
CCCCCC(=O)O[C@@H]1[C@@H](OC(=O)CCCCC)[C@H]2O[C@H]3[C@H](OC(=O)CCCCC)[C@@H](OC(=O)CCCCC)[C@@H](O[C@H]4[C@H](OC(=O)CCCCC)[C@@H](OC(=O)CCCCC)[C@@H](O[C@H]5[C@H](OC(=O)CCCCC)[C@@H](OC(=O)CCCCC)[C@@H](O[C@H]6[C@H](OC(=O)CCCCC)[C@@H](OC(=O)CCCCC)[C@@H](O[C@H]7[C@H](OC(=O)CCCCC)[C@@H](OC(=O)CCCCC)[C@@H](O[C@H]8[C@H](OC(=O)CCCCC)[C@@H](OC(=O)CCCCC)[C@@H](O[C@@H]1[C@@H](CSCCNC(=O)OC(C)(C)C)O2)O[C@@H]8CSCCNC(=O)OC(C)(C)C)O[C@@H]7CSCCNC(=O)OC(C)(C)C)O[C@@H]6CSCCNC(=O)OC(C)(C)C)O[C@@H]5CSCCNC(=O)OC(C)(C)C)O[C@@H]4CSCCNC(=O)OC(C)(C)C)O[C@@H]3CSCCNC(=O)OC(C)(C)C [compound no. 7, heptakis[6-(2-tert-butoxycarbonylaminoethylthio)-6-desoxy-2,3-di-0-hexanoyl]cyclomaltoheptaose]	194 ± 2	0.02	283 ± 29	0.06	–	–	–	–
CCCCCC(=O)O[C@@H]1[C@@H](OC(=O)CCCCC)[C@H]2O[C@H]3[C@H](OC(=O)CCCCC)[C@@H](OC(=O)CCCCC)[C@@H](O[C@H]4[C@H](OC(=O)CCCCC)[C@@H](OC(=O)CCCCC)[C@@H](O[C@H]5[C@H](OC(=O)CCCCC)[C@@H](OC(=O)CCCCC)[C@@H](O[C@H]6[C@H](OC(=O)CCCCC)[C@@H](OC(=O)CCCCC)[C@@H](O[C@H]7[C@H](OC(=O)CCCCC)[C@@H](OC(=O)CCCCC)[C@@H](O[C@H]8[C@H](OC(=O)CCCCC)[C@@H](OC(=O)CCCCC)[C@@H](O[C@@H]1[C@@H](CSCCN=C=S)O2)O[C@@H]8CSCCN=C=S)O[C@@H]7CSCCN=C=S)O[C@@H]6CSCCN=C=S)O[C@@H]5CSCCN=C=S)O[C@@H]4CSCCN=C=S)O[C@@H]3CSCCN=C=S [compound no. 9, heptakis[6-desoxy-2,3-di-0-hexanoyl-6-(2-isothiocyanatoethylthio)]cyclomaltoheptaose]	–	–	123 ± 2	0.03	0.09	138 ± 2	–	–
CCCCCC(=O)OC1C2OC(CSCCNC(=S)NC)C(OC3OC(CSCCNC(=S)NC)C(OC4OC(CSCCNC(=S)NC)C(OC5OC(CSCCNC(=S)NC)C(OC6OC(CSCCNC(=S)NC)C(OC7OC(CSCCNC(=S)NC)C(OC8OC(CSCCNC(=S)NC)C(O2)C(OC(=O)CCCCC)C8OC(=O)CCCCC)C(OC(=O)CCCCC)C7OC(=O)CCCCC)C(OC(=O)CCCCC)C6OC(=O)CCCCC)C(OC(=O)CCCCC)C5OC(=O)CCCCC)C(OC(=O)CCCCC)C4OC(=O)CCCCC)C(OC(=O)CCCCC)C3OC(=O)CCCCC)C1OC(=O)CCCCC (stereo not drawn) [compound no. 13, heptakis[6-desoxy-2,3-di-0-hexanoyl-6-(2-(N′-methylthioureido)ethylthio)]cyclomaltoheptaose]	–	–	115 ± 31	0.16	–	–	–	–
